Data taken from ChEMBL document CHEMBL5728191, “Inhibitors of cyclin-dependent kinase 7 (CDK7)” (2020).

Target: CDK7/Cyclin H/MNAT1 (Homo sapiens, UniProt P50613)
Assay: Inhibition of Kinase Activity: Compounds of the invention were assayed for activity against a variety of different kinases.
Format: protein-complex assay

Sequence of CDK7/Cyclin H/MNAT1 (P51946 whole entry): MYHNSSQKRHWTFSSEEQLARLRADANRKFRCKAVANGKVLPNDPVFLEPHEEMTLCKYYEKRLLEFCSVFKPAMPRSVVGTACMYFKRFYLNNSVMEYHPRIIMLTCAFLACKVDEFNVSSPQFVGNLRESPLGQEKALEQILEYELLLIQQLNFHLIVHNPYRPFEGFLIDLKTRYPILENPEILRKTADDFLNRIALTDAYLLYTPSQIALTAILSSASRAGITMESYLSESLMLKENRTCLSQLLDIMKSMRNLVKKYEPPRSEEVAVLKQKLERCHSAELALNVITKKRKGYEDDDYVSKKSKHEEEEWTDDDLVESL
Sequence of CDK7/Cyclin H/MNAT1 (P50613 whole entry): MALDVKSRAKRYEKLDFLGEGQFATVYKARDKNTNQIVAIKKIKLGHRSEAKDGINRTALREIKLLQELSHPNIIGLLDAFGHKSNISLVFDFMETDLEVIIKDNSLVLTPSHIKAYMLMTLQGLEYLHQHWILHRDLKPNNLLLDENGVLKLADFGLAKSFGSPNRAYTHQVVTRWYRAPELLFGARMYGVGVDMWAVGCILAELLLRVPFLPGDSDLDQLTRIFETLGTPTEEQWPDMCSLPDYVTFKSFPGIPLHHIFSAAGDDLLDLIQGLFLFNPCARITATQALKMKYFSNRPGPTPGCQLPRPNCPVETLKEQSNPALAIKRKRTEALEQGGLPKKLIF
Sequence of CDK7/Cyclin H/MNAT1 (P51948 whole entry, further chain): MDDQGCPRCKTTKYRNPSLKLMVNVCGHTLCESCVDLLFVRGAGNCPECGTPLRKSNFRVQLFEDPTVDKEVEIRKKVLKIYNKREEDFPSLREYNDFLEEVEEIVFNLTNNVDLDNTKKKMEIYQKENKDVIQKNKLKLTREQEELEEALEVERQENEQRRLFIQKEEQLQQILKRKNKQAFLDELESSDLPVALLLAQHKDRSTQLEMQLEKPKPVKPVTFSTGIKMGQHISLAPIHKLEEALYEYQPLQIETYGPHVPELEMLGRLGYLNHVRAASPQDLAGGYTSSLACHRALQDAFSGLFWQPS

C=CC(=O)Nc1ccc(C(=O)Nc2nn(C)c3c2CN(C(=O)NC(C)CN(C)C)C3(C)C)cc1 (stereo unspecified)
IC50: > 500 nM
